Data published in patent publication US9102648B1, “Bioavailable diacylhydrazine ligands for modulating the expression of exogenous genes via an ecdysone receptor complex” (Intrexon Corporation, priority 2003, dated 2015).
Read-outs that look alike come from different tables or passages of the source.

Molecular target: T1, Bombyx mori EcR (VP16 fusion, CVBE switch construct) (Bombyx mori, UniProt P49881)
T1 sequence (P49881 86-606): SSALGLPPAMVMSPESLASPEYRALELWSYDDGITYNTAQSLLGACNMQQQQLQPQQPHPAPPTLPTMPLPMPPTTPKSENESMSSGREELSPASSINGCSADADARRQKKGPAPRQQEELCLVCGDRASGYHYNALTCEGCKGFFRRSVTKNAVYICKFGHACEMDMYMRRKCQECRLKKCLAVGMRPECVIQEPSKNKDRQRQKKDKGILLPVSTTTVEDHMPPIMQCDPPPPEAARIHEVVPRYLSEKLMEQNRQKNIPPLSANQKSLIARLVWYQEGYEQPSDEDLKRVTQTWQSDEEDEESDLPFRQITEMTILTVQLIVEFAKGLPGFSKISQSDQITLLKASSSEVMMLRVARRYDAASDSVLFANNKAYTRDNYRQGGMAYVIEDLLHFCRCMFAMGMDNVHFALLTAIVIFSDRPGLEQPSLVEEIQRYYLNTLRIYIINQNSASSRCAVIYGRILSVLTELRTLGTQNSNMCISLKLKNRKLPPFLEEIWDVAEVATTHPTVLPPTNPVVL
T1 sequence (P19793 1-462 partner): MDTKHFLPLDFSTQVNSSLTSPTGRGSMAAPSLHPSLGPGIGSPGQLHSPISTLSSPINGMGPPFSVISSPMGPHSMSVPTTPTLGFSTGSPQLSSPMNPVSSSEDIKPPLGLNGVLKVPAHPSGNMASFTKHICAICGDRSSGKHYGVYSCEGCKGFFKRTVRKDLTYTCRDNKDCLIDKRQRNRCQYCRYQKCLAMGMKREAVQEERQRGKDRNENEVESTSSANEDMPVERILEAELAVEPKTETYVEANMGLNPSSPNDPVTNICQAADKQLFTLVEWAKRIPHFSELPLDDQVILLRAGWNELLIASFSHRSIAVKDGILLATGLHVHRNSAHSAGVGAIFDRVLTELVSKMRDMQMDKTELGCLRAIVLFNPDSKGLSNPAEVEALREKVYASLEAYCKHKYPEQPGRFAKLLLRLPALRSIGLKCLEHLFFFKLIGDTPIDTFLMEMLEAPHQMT
Assay: Z3 Assay (HEK-293 cells with CVBE and 6XEcRE LacZ, β-galactosidase reporter)
Settings: for Fold Induction, Z3 Assay, 3.3 uM: 3.3 uM ligand; for Fold Induction, Z3 Assay, 3.3 uM / Fold Induction, Z3 Assay, 33 uM: ligand treated / DMSO treated cells; for Fold Induction, Z3 Assay, 33 uM: 33 uM ligand; for Z3 assay Rel Max FI: maximum fold induction at any concentration relative to that of GS-E ligand; for fold induction at 3.3 µM: HEK293, read-out: Fold Induction, Z3 Assay, 3.3 uM; for fold induction at 33 µM: HEK293, read-out: Fold Induction, Z3 Assay, 33 uM

[1] = read-out: Z3 assay EC50, HEK-293 Z3 cells, β-galactosidase reporter, average of two wells

| SMILES | Fold Induction, Z3 Assay, 3.3 uM (average of two wells) | Fold Induction, Z3 Assay, 33 uM (average of two wells) | Z3 assay Rel Max FI (HEK-293 Z3 cells) | EC50 [1] | EC50 | fold induction at 3.3 µM | fold induction at 33 µM |
| --- | --- | --- | --- | --- | --- | --- | --- |
| Cc1ccc(F)c(C(=O)N(NC(=O)c2ccc3c(c2C)CCCO3)C(C)(C)C)c1 [RG-115499] | 173 | 641 | 0.954 | 170 nM | – | – | – |
| CCc1c(OC)cccc1C(=O)NN(C(=O)c1c(F)cccc1F)C(C)(C)C [RG-115033] | 24 | 388 | 0.575 | 16200 nM | – | – | – |
| COc1cccc(C(=O)NN(C(=O)c2cccc(C)c2)C(C)(C)C)c1C [RG-100694] | 1294 | 1288 | 1.157 | 389 nM | – | – | – |
| CCc1c(C(=O)NN(C(=O)c2cccc(OC)c2)C(C)(C)C)ccc2c1OCCO2 [RG-100691] | 843 | 565 | 0.945 | 257 nM | – | – | – |
| COc1cnccc1C(=O)N(NC(=O)c1cccc(O)c1C)C(C)(C)C [RG-115595] | 44 | 1067 | 0.686 | 5620 nM | – | – | – |
| CCc1c(OC)cccc1C(=O)NN(C(=O)c1cc(C)ccc1[N+](=O)[O-])C(C)(C)C [RG-115162] | 334 | 772 | 0.988 | 69 nM | – | – | – |
| CCCC(N(NC(=O)c1cccc(OC)c1C)C(=O)c1cc(OC)c(C)c(OC)c1)C(C)(C)C (centres unmarked) [RG-115824] | 895 | 737 | 0.806 | 46 nM | – | – | – |
| CCC(N(NC(=O)c1cccc(OC)c1C)C(=O)c1cc(OC)c(C)c(OC)c1)C(C)(C)C (centres unmarked) [RG-115820, 3,5-dimethoxy-4-methyl-benzoic acid N-(1-ethyl-2,2-dimethyl-propyl)-N′-(3-methoxy-2-methyl-benzoyl)-hydrazide] | – | – | 0.887 | – | 203 nM | 1410 | 701 |
| CCc1c(OC)cccc1C(=O)NN(C(=O)c1cc(OC)c(C)c(OC)c1)C(CC)C(C)(C)C (centres unmarked) [RG-115831] | 1481 | 544 | 0.937 | 102 nM | – | – | – |
| COc1cccc(C(=O)NN(C(=O)c2cc(C)cc(C)c2)C(C)(C)C)c1C [RG-102398] | – | – | 1.027 | – | 95 nM | 535 | 1970 |
| CCc1c(OC)cccc1C(=O)NN(C(=O)c1cc(C)cc(C)c1)C(C)(C)C=NO [RG-115258, 2-ethyl-3-methoxy-benzoic acid N′-(3,5-dimethyl-benzoyl)-N′-(2-hydroxyimino-1,1-dimethyl-ethyl)-hydrazide] | – | – | 0.882 | – | 646 nM | 382 | 1120 |
| COc1cc(C(=O)N(NC(=O)c2ccc3c(c2C)OCCO3)C(C)(C)C)cc(OC)c1C [RG-115637, 5-Methyl-2,3-dihydro-benzo[1,4]dioxine-6-carboxylic acid N′-tert-butyl-N′-(3,5-dimethoxy-4-methyl-benzoyl)-hydrazide] | – | – | 0.947 | – | 18 nM | 211 | – |
| CCC(N(NC(=O)c1cccc(OC)c1C)C(=O)c1cc(C)cc(C)c1)C(C)(C)C (centres unmarked) [RG-115819, 3,5-dimethyl-benzoic acid N-(1-ethyl-2,2-dimethyl-propyl)-N′-(3-methoxy-2-methyl-benzoyl)-hydrazide] | – | – | 0.915 | – | 42 nM | 1430 | 722 |
| COc1cccc(C(=O)NN(C(=O)c2cc(C)ccc2[N+](=O)[O-])C(C)(C)C)c1C [RG-100569] | 754 | 457 | 0.835 | 98 nM | – | – | – |
| COc1ccccc1C(=O)N(NC(=O)c1ccc2c(c1)OCCO2)C(C)(C)C [RG-100492] | – | 143 | – | 8130 nM | – | – | – |
| COc1ccc(Cl)cc1C(=O)N(NC(=O)c1ccc2c(c1C)CCCO2)C(C)(C)C [RG-115551] | – | 470 | – | 398 nM | – | – | – |
| CCc1c(C(=O)NN(C(=O)c2cc(OC)c(C)c(OC)c2)C(C)(C)C)ccc2c1OCCO2 [RG-115130] | 412 | 930 | – | 36 nM | – | – | – |

| SMILES | Fold Induction, Z3 Assay, 3.3 uM (average of two wells) | Fold Induction, Z3 Assay, 33 uM (average of two wells) | Z3 assay Rel Max FI (HEK-293 Z3 cells) | EC50 [1] | EC50 | fold induction at 3.3 µM | fold induction at 33 µM |
| --- | --- | --- | --- | --- | --- | --- | --- |
| CCc1c(C(=O)NN(C(=O)c2ccc(Cl)cc2OC)C(C)(C)C)ccc2c1OCO2 [RG-115085] | – | 627 | – | 195 nM | – | – | – |
| CC(C)(C)N(NC(=O)c1ccc(Cl)cc1)C(=O)c1ccccc1 [RG-100864] | – | – | – | – | 2240 nM | 63 | 840 |
| COc1ccc(OC)c(C(=O)N(NC(=O)c2cccc(C)c2C)C(C)(C)C)c1 [RG-100763] | – | 151 | – | 2140 nM | – | – | – |
| CCc1c(OC)cccc1C(=O)NN(C(=O)c1cc(C)cc(C)c1)C(C)(C)C=NNC(N)=O [RG-115653, semicarbazide of 2-ethyl-3-methoxy-benzoic acid N′-(3,5-dimethyl-benzoyl)-N′-(1,1-dimethyl-2-oxo-ethyl)-hydrazide] | – | 666 | – | – | – | – | – |
| CCc1c(OC)cccc1C(=O)NN(C(=O)c1cc(Cl)ccc1OC)C(C)(C)C [RG-115253] | – | 832 | – | 269 nM | – | – | – |
| COc1cc(C(=O)N(NC(=O)c2ccc3c(c2C)CCCO3)C(C)(C)C)cc(OC)c1C [RG-115055] | 573 | 617 | 0.936 | 43 nM | – | – | – |
| CCc1ccc(C(=O)NN(C(=O)c2cc(C)cc(C)c2)C(C)(C)C)c(F)c1 [RG-101523, 3,5-Dimethyl-benzoic acid N-tert-butyl-N′-(4-ethyl-2-fluoro-benzoyl)-hydrazide] | – | – | – | – | 242 nM | 704 | 596 |
| CC(O)c1ccc(C(=O)NN(C(=O)c2cc(F)cc(F)c2)C(C)(C)C)cc1 (centres unmarked) [RG-100342] | – | 427 | – | 10200 nM | – | – | – |
| COc1ccccc1C(=O)N(NC(=O)c1ccc2c(c1C)CCCO2)C(C)(C)C [RG-115102] | 88 | 865 | 0.858 | 139 nM | – | – | – |
| CCc1c(OC)cccc1C(=O)NN(C(=O)c1cc(C)cc(C)c1)C(C)(C)C=O [RG-115407, 2-ethyl-3-methoxy-benzoic acid N′-(3,5-dimethyl-benzoyl)-N′-(1,1-dimethyl-2-oxo-ethyl)-hydrazide] | – | – | 0.906 | – | 347 nM | 391 | 879 |
| CCc1c(OC)cccc1C(=O)NN(C(=O)c1ccccc1OC)C(C)(C)C [RG-100725] | – | 511 | – | – | – | – | – |
| Cc1c(C(=O)NN(C(=O)c2cc(F)c(F)c(F)c2)C(C)(C)C)ccc2c1CCCO2 [RG-115575, 3,4,5-Trifluoro-benzoic acid N-tert-butyl-N′-(5-methyl-chroman-6-carbonyl)-hydrazide] | – | – | 0.886 | – | 102 nM | 282 | 785 |
| CCCC(N(NC(=O)c1cccc(OC)c1CC)C(=O)c1cc(OC)c(C)c(OC)c1)C(C)(C)C (centres unmarked) [RG-115829, 3,5-Dimethoxy-4-methyl-benzoic acid N-(1-tert-butyl-butyl)-N′-(2-ethyl-3-methoxy-benzoyl)-hydrazide] | – | – | 0.937 | – | 58 nM | 1440 | 319 |
| Cc1cc(C)cc(C(=O)N(NC(=O)c2ccc3c(c2C)OCCO3)C(C)(C)C)c1 [RG-102317, N-(5-methyl-1,4-benzodioxan-6-carbonyl)-N′-(tert-butyl)-N′-(3,5-dimethylbenzoyl)hydrazine] | – | – | – | – | – | 416 | 1500 |
| CC(=O)c1ccc(C(=O)NN(C(=O)c2cc(C(=O)O)cc(C(=O)O)c2)C(C)(C)C)cc1 [RG-100150] | – | 1 | – | – | – | – | – |
| CCc1c(OC)cccc1C(=O)NN(C(=O)c1cc(F)c(Cl)cc1Cl)C(C)(C)C [RG-115302] | – | 404 | – | 275 nM | – | – | – |
| CCc1c(C(=O)NN(C(=O)c2cc(F)ccc2F)C(C)(C)C)ccc2c1OCCO2 [RG-115508] | 199 | 680 | 0.787 | 537 nM | – | – | – |
